Activity calls are given as the source filed them. The calls are words filed in the database; no cut-off is given here.
Legend:
Mus musculus [1] = assay: Anti-inflammatory activity in IMQ-induced psoriasis in female BALB/c mouse assessed as reduction in IL-1beta mRNA level at 20 mg/kg administered topically as 0.3 % ointment pretreated with IMQ for 6 hrs followed by compound addition once daily for 7 days by q-PCR analysis; format: functional, organism-based; settings: time 7.0 day
HaCaT [2] = assay: Anti-inflammatory activity in M5- stimulated human HaCaT cells assessed as reduction in TNF-alpha mRNA level incubated for 24 hrs by q-PCR analysis; format: functional, cell-based; settings: dose 5-20 µM
Mus musculus [3] = assay: Anti-psoriasis effect in IMQ-induced female BALB/c mouse assessed as reduction in psoriasis severity index score at 20 mg/kg administered topically as 0.3 % ointment pretreated with IMQ for 6 hrs followed by compound addition once daily for 7 days; format: functional, organism-based; settings: time 7.0 day
HaCaT [4] = assay: Inhibition of CREB phosphorylation in human HaCaT cells assessed as increase in pCREB/CREB ratio at 20 uM incubated for 2 hrs by Western blotting analysis; format: cell-based
RAW264.7 = assay: Cytotoxicity against mouse RAW264.7 cells assessed as reduction in cell viability at 5 to 80 uM incubated for 24 hrs by CCK-8 assay; format: toxicity, cell-based; settings: raw264.7, 24 h, dose 5-80 µM
Mus musculus [5] = assay: Anti-psoriasis effect in female BALB/c mouse model assessed as increase in K1 protein expression at 20 mg/kg administered topically as 0.3 % ointment pretreated with IMQ for 6 hrs followed by compound addition once daily for 7 days by Western blotting analysis; format: functional, organism-based; settings: time 7.0 day
Mus musculus [6] = assay: Anti-psoriasis effect in IMQ-induced female BALB/c mouse assessed as reduction in skin thickness at 20 mg/kg administered topically as 0.3 % ointment pretreated with IMQ for 6 hrs followed by compound addition once daily for 7 days; format: functional, organism-based; settings: time 7.0 day
Mus musculus [7] = assay: Anti-psoriasis effect in IMQ-induced female BALB/c mouse assessed as change in body weight at 20 mg/kg administered topically as 0.3 % ointment pretreated with IMQ for 6 hrs followed by compound addition once daily for 7 days; format: functional, organism-based; settings: time 7.0 day
[8] = Drug absorption in rat skin assessed as skin permeability by measuring steady-state transdermal flux administered topically as 0.3% ointment at 100 mg by HPLC analysis; format: ADME, tissue-based, Skin of body; settings: in vivo, topical_or_ocular
Mus musculus [9] = assay: Anti-psoriasis effect in IMQ-induced female BALB/c mouse assessed as decrease in skin thickness at 20 mg/kg administered topically as 0.3 % ointment pretreated with IMQ for 6 hrs followed by compound addition once daily for 7 days; format: functional, organism-based; settings: time 7.0 day
[10] = Metabolic stability in rat liver microsomes assessed as half life at 1 uM incubated upto 60 mins in presence of NADPH by LC-MS/MS analysis; format: ADME, Microsome
[11] = target: 3',5'-cyclic-AMP phosphodiesterase 4D (Homo sapiens, UniProt Q08499); assay: Inhibition of human PDE4D2 (86 to 413 residues) extracted from Escherichia coli BL21 cells using 3H-cAMP/3H-cGMP as substrate preincubated with compound for 15 mins followed by substrate addition by liquid scintillation counter
[12] = target: 3',5'-cyclic-AMP phosphodiesterase 4C (Homo sapiens, UniProt Q08493); assay: Inhibition of PDE4C1 (314 to 639 residues) (unknown origin) extracted from Escherichia coli BL21 cells using 3H-cAMP/3H-cGMP as substrate preincubated with compound for 15 mins followed by substrate addition by liquid scintillation counter
Mus musculus [13] = assay: Anti-psoriasis effect in IMQ-induced female BALB/c mouse assessed as change in weight of spleen at 20 mg/kg administered topically as 0.3 % ointment pretreated with IMQ for 6 hrs followed by compound addition once daily for 7 days by H and E staining based analysis; format: functional, organism-based; settings: time 7.0 day
HaCaT [14] = assay: Anti-psoriasis effect in M5-stimulated human HaCaT cells assessed as decrease in K6 protein expression at 20 uM pretreated with M5 followed by compound addition and measured after 24 hrs by Western blotting analysis; format: functional, cell-based
HaCaT [15] = assay: Anti-inflammatory activity in M5- stimulated human HaCaT cells assessed as reduction in IL-17 mRNA level incubated for 24 hrs by q-PCR analysis; format: functional, cell-based; settings: dose 5-20 µM
Mus musculus [16] = assay: Anti-inflammatory activity in IMQ-induced psoriasis in female BALB/c mouse assessed as reduction in TNF-alpha mRNA level at 20 mg/kg administered topically as 0.3 % ointment pretreated with IMQ for 6 hrs followed by compound addition once daily for 7 days by q-PCR analysis; format: functional, organism-based; settings: time 7.0 day
Mus musculus [17] = assay: Anti-psoriasis effect in IMQ-induced female BALB/c mouse assessed as change in size of spleen at 20 mg/kg administered topically as 0.3 % ointment pretreated with IMQ for 6 hrs followed by compound addition once daily for 7 days by H and E staining based analysis; format: functional, organism-based; settings: time 7.0 day
Mus musculus [18] = assay: Anti-psoriasis effect in IMQ-induced female BALB/c mouse assessed as decrease in erythema scores at 20 mg/kg administered topically as 0.3 % ointment pretreated with IMQ for 6 hrs followed by compound addition once daily for 7 days; format: functional, organism-based; settings: time 7.0 day
Mus musculus [19] = assay: Anti-psoriasis effect in IMQ-induced female BALB/c mouse assessed as reduction in severity of skin erythema at 20 mg/kg administered topically as 0.3 % ointment pretreated with IMQ for 6 hrs followed by compound addition once daily for 7 days; format: functional, organism-based; settings: time 7.0 day

3',5'-cyclic-AMP phosphodiesterase 4C, sequence (Q08493 whole entry, the tested form may be a part): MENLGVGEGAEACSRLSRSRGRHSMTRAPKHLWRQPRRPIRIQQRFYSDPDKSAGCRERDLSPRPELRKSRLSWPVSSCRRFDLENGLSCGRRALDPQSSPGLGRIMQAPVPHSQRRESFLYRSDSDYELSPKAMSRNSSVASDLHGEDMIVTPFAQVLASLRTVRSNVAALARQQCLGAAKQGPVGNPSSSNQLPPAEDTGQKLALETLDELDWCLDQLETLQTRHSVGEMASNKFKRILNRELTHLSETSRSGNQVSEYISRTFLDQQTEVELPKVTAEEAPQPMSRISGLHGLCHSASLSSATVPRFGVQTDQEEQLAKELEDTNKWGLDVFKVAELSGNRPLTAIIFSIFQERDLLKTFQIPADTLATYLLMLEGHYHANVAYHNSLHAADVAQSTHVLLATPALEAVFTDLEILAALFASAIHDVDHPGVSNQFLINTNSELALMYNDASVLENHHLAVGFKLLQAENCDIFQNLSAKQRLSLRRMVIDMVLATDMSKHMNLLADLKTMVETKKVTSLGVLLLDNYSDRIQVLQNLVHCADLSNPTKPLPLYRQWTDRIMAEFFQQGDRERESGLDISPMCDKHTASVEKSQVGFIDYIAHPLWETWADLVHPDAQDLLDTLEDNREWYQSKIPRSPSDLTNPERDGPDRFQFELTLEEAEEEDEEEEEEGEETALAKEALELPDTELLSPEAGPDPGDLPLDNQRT
3',5'-cyclic-AMP phosphodiesterase 4D, sequence (Q08499 whole entry, the tested form may be a part): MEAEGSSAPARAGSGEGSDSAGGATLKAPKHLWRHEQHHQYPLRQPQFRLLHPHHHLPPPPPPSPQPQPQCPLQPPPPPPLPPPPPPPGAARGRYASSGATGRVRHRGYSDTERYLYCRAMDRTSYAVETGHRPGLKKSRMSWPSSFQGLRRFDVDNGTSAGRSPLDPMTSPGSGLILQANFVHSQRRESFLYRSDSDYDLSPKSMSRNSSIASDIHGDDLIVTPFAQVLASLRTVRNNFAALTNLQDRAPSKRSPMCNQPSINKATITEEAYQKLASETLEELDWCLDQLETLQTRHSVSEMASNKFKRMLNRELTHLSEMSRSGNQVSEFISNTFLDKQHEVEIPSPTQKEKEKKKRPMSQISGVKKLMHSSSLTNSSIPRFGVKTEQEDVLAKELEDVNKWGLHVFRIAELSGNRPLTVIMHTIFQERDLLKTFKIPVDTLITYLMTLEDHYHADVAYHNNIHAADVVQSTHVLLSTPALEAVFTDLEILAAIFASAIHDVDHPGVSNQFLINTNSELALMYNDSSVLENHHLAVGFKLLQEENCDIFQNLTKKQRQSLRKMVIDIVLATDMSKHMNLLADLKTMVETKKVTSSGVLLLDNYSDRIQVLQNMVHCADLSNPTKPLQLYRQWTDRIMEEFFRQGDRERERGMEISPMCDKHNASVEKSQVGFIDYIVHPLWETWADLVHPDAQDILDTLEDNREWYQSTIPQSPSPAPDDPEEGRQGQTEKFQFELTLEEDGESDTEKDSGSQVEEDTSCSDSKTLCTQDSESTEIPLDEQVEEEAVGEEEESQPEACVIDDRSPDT

COC(=O)[C@H]1C[C@@H](Oc2c(O)ccc3cc(-c4ccc(OC(F)F)c(OCC5CC5)c4)oc23)CN1
Activity (Mus musculus [1]): Active | Activity (HaCaT [2]): Dose-dependent-effect | Activity (Mus musculus [3]): Active | inhibition (HaCaT [4]): Active | Activity (RAW264.7): Non-toxic | Activity (Mus musculus [5]): Active | Activity (Mus musculus [6]): Active | Activity (Mus musculus [7]): Active | Jss [8]: 0.43 ug/cm2.hr | Activity (Mus musculus [9]): Active | half-life at 1 µM [10]: 22.9 min | IC50 [11]: 8.6 nM | IC50 [12]: 747 nM | Activity (Mus musculus [13]): Active | Activity (HaCaT [14]): Active | Activity (HaCaT [15]): Dose-dependent-effect | Activity (Mus musculus [16]): Active | Activity (Mus musculus [17]): Active | Activity (Mus musculus [18]): Active | Activity (Mus musculus [19]): Active

From ChEMBL document CHEMBL6115031, “Structure-Based Optimization of Moracin M as Potent and Selective PDE4 Inhibitors with Antipsoriasis Effects” (J Med Chem, 2025)
